Experimental data taken from ChEMBL document CHEMBL5143561, “Neopestolides A-D, Diphenyl Ether Derivatives from the Plant Endophytic Fungus Neopestalotiopsis sp” (J Nat Prod, 2022).
Blank lines part the entries; values can stand above or below the molecule they belong to.

How the values were obtained:
Format in all cases: functional, cell-based
[1] = system: HepG2; assay: Antiproliferative activity against human HepG2 cells assessed as reduction in cell viability measured after 72 hrs by MTT assay; settings: HepG2, 72 h
[2] = system: HCT-116; assay: Antiproliferative activity against human HCT-116 cells assessed as reduction in cell viability measured after 72 hrs by MTT assay; settings: HCT-116, 72 h
[3] = system: J82; assay: Antiproliferative activity against human J82 cells assessed as reduction in cell viability measured after 72 hrs by MTT assay; settings: J82, 72 h
[4] = system: SK-BR-3; assay: Antiproliferative activity against human SK-BR-3 cells assessed as reduction in cell viability measured after 72 hrs by MTT assay; settings: SK-BR-3, 72 h

SMILES: COc1c([C@H]2OC[C@@](C)(O)[C@H]2O)ccc2c1C(=O)OCc1cc(C)cc(O)c1O2
IC50 [1]: 80.1 µM
IC50 [2]: 47.1 µM
IC50 [3]: > 100 µM
IC50 [4]: > 100 µM

SMILES: C=C1CO[C@@H](c2ccc3c(c2OC)C(=O)OCc2cc(C)cc(O)c2O3)[C@@H]1O
IC50 [1]: 21.6 µM
IC50 [2]: 20.7 µM
IC50 [3]: > 100 µM
IC50 [4]: > 100 µM

SMILES: C=C1COC(c2ccc3c(c2OC)C(=O)OCc2cc(C)cc(O)c2O3)C1O (racemic)
IC50 [1]: 16.8 µM
IC50 [2]: 45.6 µM
IC50 [3]: > 100 µM
IC50 [4]: 29.1 µM

More lines, in order of falling IC50 [1], values ahead:

IC50 [1]: 99.7 µM
IC50 [2]: 74.3 µM
IC50 [4]: 88.5 µM
SMILES: COc1c([C@@H]2OC[C@@](C)(O)[C@H]2O)ccc2c1C(=O)OCc1cc(C)cc(O)c1O2
IC50 [3]: > 100 µM

IC50 [1]: 70.1 µM
IC50 [2]: 79.3 µM
IC50 [4]: > 100 µM
SMILES: COc1c(/C=C/[C@@](C)(O)CO)ccc2c1C(=O)OCc1cc(C)cc(O)c1O2
IC50 [3]: > 100 µM

IC50 [1]: 30.1 µM
IC50 [2]: 57.1 µM
IC50 [4]: 86.5 µM
SMILES: C=C1CO[C@H](c2ccc3c(c2OC)C(=O)OCc2cc(C)cc(O)c2O3)[C@H]1O
IC50 [3]: > 100 µM

IC50 [1]: 12.4 µM
IC50 [2]: 22.4 µM
IC50 [4]: 43.8 µM
SMILES: C=C(C)[C@H](C)[C@H](O)c1ccc2c(c1OC)C(=O)OCc1cc(C)cc(O)c1O2
IC50 [3]: 62.4 µM
